Laboratory results reported in US20200024278A1, “COMPOSITION COMPRISING ANTIBIOTIC COMPOUND AND AN HETEROCYCLIC COMPOUND AND THEIR USE IN PREVENTING OR TREATING BACTERIAL INFECTIONS” (MUTABILIS, priority 2016, published 2020).

Assays:
Assay in all cases: MIC, broth microdilution (CLSI), substance alone or ATB combined with compound at 4 or 8 μg/mL
[1] = test system: SAU 29213; format: cell-based, S. aureus; conditions: for MIC ATB combined with compound / MIC ATB combined with Example compound: compound @8 μg/ml, SAU 29213
Outline: (§1)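 Each strain received 5·10^5 CFU/mL of log-phase cells in ca-MHB over DMSO-spotted compound or compound-antibiotic combinations. After 16-20 h at 35° C, growth was scored visually.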

[2] = test system: PAE 105250; format: cell-based, P. aeruginosa; conditions: for MIC ATB combined with compound / MIC ATB combined with Example compound: compound @8 μg/ml, PAE 105250
Outline: as §1

[3] = test system: PAE UFR90; format: cell-based, P. aeruginosa; conditions: for MIC ATB combined with compound / MIC ATB combined with Example compound: compound @8 μg/ml, PAE UFR90
Outline: as §1

[4] = test system: PAE UFR48; format: cell-based, P. aeruginosa; conditions: for MIC ATB combined with compound / MIC ATB combined with Example compound: compound @8 μg/ml, PAE UFR48
Outline: as §1

[5] = test system: ECL P99; format: cell-based, E. cloacae
Outline: as §1

[6] = test system: KPN UFR42; format: cell-based, K. pneumoniae; conditions: for MIC ATB combined with Example compound: compound @8 μg/ml, KPN UFR42
Procedure: (§2) Compounds of the present invention were assessed against genotyped bacterial strains alone or in combination with an antibacterial. In the assays, MICs of said compounds or combination of antibiotics with fixed concentrations of said compounds (4 or 8 μg/mL) were determined by the broth microdilution method according to the Clinical Laboratory Standards Institute (CLSI-M7-A7). Briefly, compounds alone according to the invention were prepared in DMSO and spotted (2 μL each) on sterile polystyrene plates (Corning, 3788). Combinations of compounds and antibiotics dilutions were prepared in DMSO and spotted (1 μL each) on sterile polystyrene plates (Corning, 3788). Log phase bacterial suspensions were adjusted to a final density of 5·10^5 CFU/mL in cation-adjusted Mueller-Hinton broth (ca-MHB; Becton-Dickinson and Company) and added to each well (98 μL). Assays including Fosfomycin were supplemented with 25 μg/ml of Glucose-6-phosphate. Microplates were incubated for 16-20 h at 35° C. in ambient air. The MIC of the compounds was defined as the lowest concentration of said compounds that prevented bacterial growth as read by visual inspection. The MIC of ATB at each compound concentration was defined as the lowest concentration of ATB that prevented bacterial growth as read by visual inspection.

[7] = test system: KPN 6299; format: cell-based, K. pneumoniae; conditions: MIC of CIP, compound @8 μg/ml
Procedure: as §2

[8] = test system: KPN BAA-1898; format: cell-based, K. pneumoniae
Procedure: as §2

[9] = test system: ECO UFR39; format: cell-based, E. coli; conditions: for MIC ATB combined with Example compound: compound @8 μg/ml, ECO UFR39
Outline: as §1

[10] = test system: ECO 190317; format: cell-based, E. coli
Outline: as §1

[11] = test system: SPN 49619; format: cell-based, S. pneumoniae; conditions: for MIC ATB combined with compound / MIC ATB combined with Example compound: compound @8 μg/ml, SPN 49619
Outline: as §1

## O=C1N2CC(c3ncco3)=CC(C2)N1OC(F)(F)C(=O)O (stereo not shown) [Example 7]
[1]; ATB ATM
  MIC ATB combined with compound: >32 mg/L
[1]; ATB FEP
  MIC ATB combined with compound: 1 mg/L
[1]; ATB FOS
  MIC ATB combined with compound: 0.5 mg/L
[1]; ATB MEM
  MIC ATB combined with compound: <=0.031 μg/mL
[1]; ATB PIP
  MIC ATB combined with compound: 1 mg/L
[1]; MIC of CIP
  MIC ATB combined with Example compound: 0.25 mg/L
[1]; MIC of CLI
  MIC ATB combined with Example compound: 0.031 mg/L
[1]; MIC of CPO
  MIC ATB combined with Example compound: 0.25 mg/L
[1]; MIC of DAP
  MIC ATB combined with Example compound: 1 mg/L
[1]; MIC of ERY
  MIC ATB combined with Example compound: 0.25 mg/L
[1]; MIC of LZD
  MIC ATB combined with Example compound: 1 mg/L
[1]; MIC of RIF
  MIC ATB combined with Example compound: 0.0078 mg/L
[1]; MIC of SYN
  MIC ATB combined with Example compound: 0.25 mg/L
[1]; MIC of VAN
  MIC ATB combined with Example compound: 1 mg/L
[1]; Staphylococcus aureus, MSSA
  MIC: 32 mg/L
[2]; ATB ATM
  MIC ATB combined with compound: 8 mg/L
[2]; ATB FEP
  MIC ATB combined with compound: 8 mg/L
[2]; ATB FOS
  MIC ATB combined with compound: >128 mg/L
[2]; ATB MEM
  MIC ATB combined with compound: 4 mg/L
[2]; ATB PIP
  MIC ATB combined with compound: >32 mg/L
[2]; MIC of CIP
  MIC ATB combined with Example compound: 0.125 mg/L
[2]; MIC of CPO
  MIC ATB combined with Example compound: 16 mg/L
[2]; Pseudomonas aeruginosa
  MIC: > 32 mg/L
[3]; ATB ATM
  MIC ATB combined with compound: 16 mg/L
[3]; ATB FEP
  MIC ATB combined with compound: 4 mg/L
[3]; ATB FOS
  MIC ATB combined with compound: 8 mg/L
[3]; ATB MEM
  MIC ATB combined with compound: 2 mg/L
[3]; ATB PIP
  MIC ATB combined with compound: >32 mg/L
[3]; MIC of CIP
  MIC ATB combined with Example compound: 1 mg/L
[3]; MIC of CPO
  MIC ATB combined with Example compound: 16 mg/L
[3]; Pseudomonas aeruginosa
  MIC: > 32 mg/L
[4]; ATB ATM
  MIC ATB combined with compound: >32 mg/L
[4]; ATB FEP
  MIC ATB combined with compound: 32 mg/L
[4]; ATB FOS
  MIC ATB combined with compound: 32 mg/L
[4]; ATB MEM
  MIC ATB combined with compound: 4 mg/L
[4]; ATB PIP
  MIC ATB combined with compound: >32 mg/L
[4]; MIC of CIP
  MIC ATB combined with Example compound: 4 mg/L
[4]; MIC of CPO
  MIC ATB combined with Example compound: >32 mg/L
[4]; Pseudomonas aeruginosa
  MIC: > 32 mg/L
[5]; Enterobacter cloacae
  MIC: 8 mg/L
[5]; MIC of CIP, compound @8 μg/ml, ECL P99
  MIC ATB combined with Example compound: <0.031 mg/L
[6]; Klebsiella pneumoniae
  MIC: 16 mg/L
[6]; MIC of CIP
  MIC ATB combined with Example compound: >32 mg/L
[6]; MIC of CPO
  MIC ATB combined with Example compound: <=0.031 μg/mL
[7]
  MIC ATB combined with Example compound: 8 mg/L
[8]; Klebsiella pneumoniae, BAA1898
  MIC: 8 mg/L
[8]; MIC of CIP, compound @8 μg/ml, KPN BAA-1898
  MIC ATB combined with Example compound: 1 mg/L
[9]; Escherichia coli
  MIC: 8 mg/L
[9]; MIC of CIP
  MIC ATB combined with Example compound: <0.031 mg/L
[9]; MIC of CPO
  MIC ATB combined with Example compound: <0.031 mg/L
[10]; Escherichia coli
  MIC: 4 mg/L
[10]; MIC of CIP, compound @8 μg/ml, ECO 190317
  MIC ATB combined with Example compound: <0.031 mg/L
[11]; ATB ATM
  MIC ATB combined with compound: >32 mg/L
[11]; ATB FEP
  MIC ATB combined with compound: <=0.031 μg/mL
[11]; ATB FOS
  MIC ATB combined with compound: 8 mg/L
[11]; ATB MEM
  MIC ATB combined with compound: <=0.031 μg/mL
[11]; ATB PIP
  MIC ATB combined with compound: 0.5 mg/L
[11]; MIC of CIP
  MIC ATB combined with Example compound: 0.5 mg/L
[11]; MIC of CLI
  MIC ATB combined with Example compound: 0.125 mg/L
[11]; MIC of CPO
  MIC ATB combined with Example compound: <=0.031 μg/mL
[11]; MIC of DAP
  MIC ATB combined with Example compound: 0.125 mg/L
[11]; MIC of ERY
  MIC ATB combined with Example compound: 0.125 mg/L
[11]; MIC of LZD
  MIC ATB combined with Example compound: 1 mg/L
[11]; MIC of RIF
  MIC ATB combined with Example compound: 0.0078 mg/L
[11]; MIC of SYN
  MIC ATB combined with Example compound: 0.5 mg/L
[11]; MIC of VAN
  MIC ATB combined with Example compound: 0.125 mg/L
[11]; Streptococcus pneumoniae
  MIC: 16 mg/L
